According to paper PMC7757987, “Antitumor Activity and Mechanism Study of Riluzole and Its Derivatives” (Iranian Journal of Pharmaceutical Research : IJPR, 2020):
Read-outs that look alike come from different tables or passages of the source.

Legend:
[1] = system: HeLa (human cervical cancer cell line); assay: CCK-8 anti-proliferative assay, HeLa; assay type: cell-based; conditions: for IC50: Homo sapiens, HeLa, CCK-8, 48 h, read-out: Cytotoxicity (IC50) HeLa; for Selectivity index (SI) HeLa: IC50 LO2 / IC50 HeLa
Description: (§1) HeLa (human cervical cancer cell line), HepG2 (human liver cancer cell line), SP2/0 (mouse myeloma cell line), and LO2 (human normal liver cell line) were cultured in DMEM medium. Each medium was supplemented with 10% fetal bovine serum, 1% L-glutamine and 1% penicillin/streptomycin solution. The cell lines were kept in the incubator at 37 ℃ in a humidified atmosphere (90% RH) containing 5% CO2. […] The cell lines SP2/0 and MCF-7 were obtained from Laboratory Center of Shaanxi Province People’s Hospital.
(§2) 2×10^3 cells per well were planted into 96-well plates in 100 μL growth medium and incubated for 24 h. […] The mixture was incubated at 37 ℃ under a humidified 5% CO2 atmosphere. After incubation, 10 μL CCK-8 solution was added to each well and the cells were further incubated for 2 h at 37 ℃ according to the CCK-8 Technical Manual. Then, the OD value for each well was read at wavelength 450 nm to determine the cell viability on a microplate reader (Synergy HT, USA). […] The independent experiment was repeated at least three times. The percentage of growth inhibition was calculated as follows according to reference ([18]),
(§3) % of growth inhibition = [1 - absorbance of treated cells/absorbance of untreated cells] × 100%

[2] = system: HepG2 (human liver cancer cell line); assay: CCK-8 anti-proliferative assay, HepG2; assay type: cell-based; conditions: for IC50: Homo sapiens, HepG2, CCK-8, 48 h, read-out: Cytotoxicity (IC50) HepG2; for Selectivity index (SI) HepG2: IC50 LO2 / IC50 HepG2
Description: as §1, §2, §3

[3] = system: SP2/0 (mouse myeloma cell line); assay: CCK-8 anti-proliferative assay, SP2/0; assay type: cell-based; conditions: for Selectivity index (SI) SP2/0: IC50 LO2 / IC50 SP2/0; for IC50: Mus musculus, CCK-8, 48 h, read-out: Cytotoxicity (IC50) SP2/0
Description: as §1, §2, §3

[4] = system: MCF-7 (human breast cancer cell line); assay: CCK-8 anti-proliferative assay, MCF-7; assay type: cell-based; conditions: for IC50: Homo sapiens, MCF7, CCK-8, 48 h; for Selectivity index (SI) MCF-7: IC50 LO2 / IC50 MCF-7
Description: as §1, §2, §3

[5] = CCK-8 cytotoxicity assay, normal LO2 cells; assay type: cell-based, human; conditions: human, LO2 normal liver cells; CCK-8, 48 h, normal liver cells; read-out: Cytotoxicity (IC50) L02
Description: as §1, §2, §3

[6] = system: HeLa, HepG2, SP2/0 and MCF-7; assay: CCK-8 anti-proliferative assay, all examined cancer cell lines; assay type: cell-based; conditions: HepG2, SP2/0, MCF-7, CCK-8, 48 h
Description: as §1, with “MCF-7 (breast cancer cell line) was cultured in RPMI-1640 medium. HeLa” for “HeLa”
2×10^3 cells per well were planted into 96-well plates in 100 μL growth medium and incubated for 24 h. Then, the cells were exposed to each compound in growth medium (DMSO< 0.5%) at five different concentrations (1.23, 3.70, 11.11, 33.33, and 100 μmol/L) for 48 h. The mixture was incubated at 37 ℃ under a humidified 5% CO2 atmosphere. After incubation, 10 μL CCK-8 solution was added to each well and the cells were further incubated for 2 h at 37 ℃ according to the CCK-8 Technical Manual. Then, the OD value for each well was read at wavelength 450 nm to determine the cell viability on a microplate reader (Synergy HT, USA). […] The independent experiment was repeated at least three times. The percentage of growth inhibition was calculated as follows according to reference ([18]),
as §3

[7] = read-out: Cytotoxicity (IC50) MCF-7

IC50 ([4]; read-out: IC50 in MCF-7 cells) [µM] | melting point [°C] | IC50 [6] [µM] | Compound | IC50 [1] [µM] | IC50 [2] [µM] | Selectivity index (SI) SP2/0 [3] | IC50 [3] [µM] | IC50 [4, 7] [µM] | IC50 at 48 h [5] [µM] | Selectivity index (SI) HeLa [1] | Selectivity index (SI) HepG2 [2] | Selectivity index (SI) MCF-7 [4]
11.5 | 77 to 78 |  | CC1CCN(c2nc3ccc(OC(F)(F)F)cc3s2)CC1 [Compound 4i, 2-(N-4-methyl-1-piperidinyl)-6-trifluoromethoxy-benzothiazole] | > 100 | > 100 | 9.68 | 11.5 ± 0.85 | > 100 | > 100 |  |  | 
 | 88 to 89 |  | CCCNc1nc2ccc(OC(F)(F)F)cc2s1 [Compound 4b] | 30.1 ± 1.28 | 18 ± 0.88 | 0.69 | 46.4 ± 3.62 | 12.9 ± 0.69 | 32.2 ± 3.03 | 1.07 | 1.79 | 2.50
 | 38 to 39 |  | CCN(CC)c1nc2ccc(OC(F)(F)F)cc2s1 [Compound 4d, (N-diaethylamine)-6-trifluoromethoxy-benzothiazole] | > 100 | > 100 |  | 48.5 ± 3.41 | 46.6 ± 2.77 | > 100 |  |  | 
 | 103 to 105 | > 100 | FC(F)(F)Oc1ccc2nc(N3CCOCC3)sc2c1 [Compound 4h, (N-morpholine)-6-trifluoromethoxy-benzothiazole] | > 100 | > 100 |  | 98.7 ± 3.28 | > 100 | > 100 |  |  | 
 | 38 to 39 | > 100 | FC(F)(F)Oc1ccc2nc(Cl)sc2c1 [Compound 3, 2-chloro-6-trifluoromethoxy-benzothiazole] | > 100 | > 100 |  | > 100 | > 100 | 100 ± 6.07 |  |  | 
 | 129 to 130 | > 100 | FC(F)(F)Oc1ccc2nc(N3CCCC3)sc2c1 [Compound 4f, (N-pyrrolidine)-6-trifluoromethoxy-benzothiazole] | > 100 | > 100 |  | > 100 | > 100 | 65.2 ± 3.53 |  |  | 
 | 76 to 78 |  | CCCCNc1nc2ccc(OC(F)(F)F)cc2s1 [Compound 4c] | 16.7 ± 0.94 | > 100 | 0.43 | 59 ± 3.32 | 21.9 ± 0.97 | 25.6 ± 3.12 | 1.53 |  | 1.17
 |  |  | CNC(=O)c1cc(Oc2ccc(NC(=O)Nc3ccc(Cl)c(C(F)(F)F)c3)cc2)ccn1 [Sorafenib, reference compound] | 5.16 ± 0.62 | 12 ± 2.12 |  | 4.25 ± 0.75 | 7.66 ± 0.73 | 11.9 ± 0.32 |  |  | 
 | 96 to 97 |  | FC(F)(F)Oc1ccc2nc(NC3CCCCC3)sc2c1 [Compound 4e] | 20.9 ± 0.98 | 20.2 ± 0.93 | 1.91 | 17.7 ± 0.81 | 20.5 ± 1.09 | 33.8 ± 2.4 | 1.62 | 1.67 | 1.65
 | 74 to 75 |  | FC(F)(F)Oc1ccc2nc(N3CCCCC3)sc2c1 [Compound 4g, 2-(N-piperidine)-6-trifluoromethoxy-benzothiazole] | > 100 | > 100 | 4.12 | 32.6 ± 1.44 | 25.8 ± 1.21 | > 100 |  |  | 5.20
